Consider 5 compounds from patent publication US9636418B2 (priority 2013, dated 2017).

Data set [1] has as its target T1, hNav1.7 (Homo sapiens, UniProt Q15858). The data set can be described thus: cell-based. Type of data set: cell-based.
The next data set concerns the target hNav1.8 (Homo sapiens, UniProt Q9Y5Y9). The data set can be described thus: cell-based. It is filed as cell-based.
The next data set deals with hNav1.5 (Homo sapiens, UniProt Q14524). The data set can be described thus: cell-based. Type of data set: cell-based.
In another data set the target is hNav1.4 (Homo sapiens, UniProt P35499). It is filed as cell-based.
Sequence of hNav1.4 (P35499 whole entry): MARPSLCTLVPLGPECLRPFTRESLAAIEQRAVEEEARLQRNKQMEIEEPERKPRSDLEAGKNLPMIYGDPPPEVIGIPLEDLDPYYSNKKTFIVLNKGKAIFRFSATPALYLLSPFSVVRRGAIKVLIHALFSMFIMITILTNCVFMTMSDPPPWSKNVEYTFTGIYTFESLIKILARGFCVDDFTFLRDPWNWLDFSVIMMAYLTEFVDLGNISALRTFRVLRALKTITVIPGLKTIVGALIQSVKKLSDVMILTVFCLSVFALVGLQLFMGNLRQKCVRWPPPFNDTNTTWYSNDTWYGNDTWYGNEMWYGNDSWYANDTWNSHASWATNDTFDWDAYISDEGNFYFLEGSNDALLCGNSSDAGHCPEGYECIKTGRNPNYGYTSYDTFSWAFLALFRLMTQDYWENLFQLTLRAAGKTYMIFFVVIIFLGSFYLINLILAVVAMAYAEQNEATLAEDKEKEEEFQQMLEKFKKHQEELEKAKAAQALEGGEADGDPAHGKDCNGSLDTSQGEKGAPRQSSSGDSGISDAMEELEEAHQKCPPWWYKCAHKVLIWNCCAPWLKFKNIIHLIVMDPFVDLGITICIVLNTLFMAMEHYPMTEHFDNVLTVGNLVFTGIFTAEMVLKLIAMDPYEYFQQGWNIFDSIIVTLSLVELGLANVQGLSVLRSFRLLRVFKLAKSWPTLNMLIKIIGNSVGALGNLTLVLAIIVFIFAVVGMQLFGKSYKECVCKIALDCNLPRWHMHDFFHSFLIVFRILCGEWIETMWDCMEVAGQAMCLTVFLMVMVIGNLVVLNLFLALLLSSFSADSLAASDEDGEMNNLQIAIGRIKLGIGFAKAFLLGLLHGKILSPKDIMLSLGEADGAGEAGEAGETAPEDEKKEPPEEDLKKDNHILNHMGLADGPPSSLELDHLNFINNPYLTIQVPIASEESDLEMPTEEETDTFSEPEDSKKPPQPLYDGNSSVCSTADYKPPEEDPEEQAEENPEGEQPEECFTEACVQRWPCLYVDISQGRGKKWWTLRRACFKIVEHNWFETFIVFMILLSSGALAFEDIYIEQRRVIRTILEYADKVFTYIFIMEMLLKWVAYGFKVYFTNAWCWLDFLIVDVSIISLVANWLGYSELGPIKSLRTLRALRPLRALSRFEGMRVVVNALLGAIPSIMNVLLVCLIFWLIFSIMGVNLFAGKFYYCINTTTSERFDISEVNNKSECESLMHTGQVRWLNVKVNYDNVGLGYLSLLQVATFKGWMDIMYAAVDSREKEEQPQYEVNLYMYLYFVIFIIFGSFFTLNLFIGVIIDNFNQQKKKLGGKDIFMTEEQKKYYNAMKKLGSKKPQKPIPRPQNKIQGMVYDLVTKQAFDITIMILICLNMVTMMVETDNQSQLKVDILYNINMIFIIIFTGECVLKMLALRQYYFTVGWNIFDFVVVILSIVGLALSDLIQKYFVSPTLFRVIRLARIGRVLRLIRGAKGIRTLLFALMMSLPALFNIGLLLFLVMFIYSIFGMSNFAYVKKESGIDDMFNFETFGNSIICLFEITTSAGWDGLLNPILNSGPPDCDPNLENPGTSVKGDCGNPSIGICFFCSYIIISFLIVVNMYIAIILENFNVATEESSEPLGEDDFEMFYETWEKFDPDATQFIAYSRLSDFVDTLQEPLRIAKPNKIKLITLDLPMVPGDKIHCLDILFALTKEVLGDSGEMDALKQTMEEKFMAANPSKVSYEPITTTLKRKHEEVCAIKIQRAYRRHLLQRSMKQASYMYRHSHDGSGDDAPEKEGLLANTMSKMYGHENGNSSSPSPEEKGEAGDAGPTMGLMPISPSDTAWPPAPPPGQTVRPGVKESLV
The next data set addresses hNav1.3 (Homo sapiens, UniProt Q9NY46). It is filed as cell-based.
For data set [2], the system named is TTX-sensitive Nav channels in mouse DRG neuron. It is filed as cell-based.
Data set [3] deals with TTX-resistant Nav channels in mouse DRG neuron. Type of data set: cell-based.
Data set [4] addresses T1, hNav1.7. The data set can be described thus: cell-based. Type of data set: cell-based. The conditions noted are these: values quoted in text (average); read-out: hNav1.7 IC50 in the PX format.
For data set [5], the system named is male CD-1 mice. The conditions noted are these: mouse, in vivo.
The subject of data set [6] is male CD-1 mice. The conditions noted are these: mouse, in vivo. This is another data set of the same source.
Data set [7] concerns male Sprague-Dawley rats. It is filed as in vivo, rat.
For data set [8] the following is noted: human plasma, 37° C., incubation 0 hr.
For data set [9] the following is noted: cyno plasma, 37° C., incubation 0 hr.
For data set [10] the following is noted: 1 mg/kg s.c.
The subject of data set [11] is male CD-1 mice. The conditions noted are these: for terminal exposure (plasma): 2 h post peptide injection.
Data set [12] relates to male Sprague-Dawley rats. As to conditions: 5.0 mg/kg s.c., 2 h post peptide injection.
The nature of another data set: in vivo. As to conditions: CD-1, mouse, sc, 1 mg/kg.
Data set [13] can be described thus: in vitro. As to conditions: human, plasma.
Data set [14] can be described thus: in vitro. The conditions noted are these: monkey, plasma.
For data set [15], the system named is central neuronal sodium channels in rat hippocampus neurons. The conditions noted are these: cited from earlier work.
The conditions of data set [16]: in vivo; cited from earlier work.
A further data set has as its system mice. As to conditions: mouse, in vivo; cited from earlier work.
Setting [17] is: 0.1, 0.3 or 1.0 mg/kg s.c., 1-hour pre-treatment.

Where “and” joins values, the source holds several entries; their conditions need not be identical. Equal values may be shown once. Entries after “also recorded” stand apart in the source; their conditions may differ. Read-outs that look alike come from different tables or passages of the source.

T1 sequence (Q15858 whole entry): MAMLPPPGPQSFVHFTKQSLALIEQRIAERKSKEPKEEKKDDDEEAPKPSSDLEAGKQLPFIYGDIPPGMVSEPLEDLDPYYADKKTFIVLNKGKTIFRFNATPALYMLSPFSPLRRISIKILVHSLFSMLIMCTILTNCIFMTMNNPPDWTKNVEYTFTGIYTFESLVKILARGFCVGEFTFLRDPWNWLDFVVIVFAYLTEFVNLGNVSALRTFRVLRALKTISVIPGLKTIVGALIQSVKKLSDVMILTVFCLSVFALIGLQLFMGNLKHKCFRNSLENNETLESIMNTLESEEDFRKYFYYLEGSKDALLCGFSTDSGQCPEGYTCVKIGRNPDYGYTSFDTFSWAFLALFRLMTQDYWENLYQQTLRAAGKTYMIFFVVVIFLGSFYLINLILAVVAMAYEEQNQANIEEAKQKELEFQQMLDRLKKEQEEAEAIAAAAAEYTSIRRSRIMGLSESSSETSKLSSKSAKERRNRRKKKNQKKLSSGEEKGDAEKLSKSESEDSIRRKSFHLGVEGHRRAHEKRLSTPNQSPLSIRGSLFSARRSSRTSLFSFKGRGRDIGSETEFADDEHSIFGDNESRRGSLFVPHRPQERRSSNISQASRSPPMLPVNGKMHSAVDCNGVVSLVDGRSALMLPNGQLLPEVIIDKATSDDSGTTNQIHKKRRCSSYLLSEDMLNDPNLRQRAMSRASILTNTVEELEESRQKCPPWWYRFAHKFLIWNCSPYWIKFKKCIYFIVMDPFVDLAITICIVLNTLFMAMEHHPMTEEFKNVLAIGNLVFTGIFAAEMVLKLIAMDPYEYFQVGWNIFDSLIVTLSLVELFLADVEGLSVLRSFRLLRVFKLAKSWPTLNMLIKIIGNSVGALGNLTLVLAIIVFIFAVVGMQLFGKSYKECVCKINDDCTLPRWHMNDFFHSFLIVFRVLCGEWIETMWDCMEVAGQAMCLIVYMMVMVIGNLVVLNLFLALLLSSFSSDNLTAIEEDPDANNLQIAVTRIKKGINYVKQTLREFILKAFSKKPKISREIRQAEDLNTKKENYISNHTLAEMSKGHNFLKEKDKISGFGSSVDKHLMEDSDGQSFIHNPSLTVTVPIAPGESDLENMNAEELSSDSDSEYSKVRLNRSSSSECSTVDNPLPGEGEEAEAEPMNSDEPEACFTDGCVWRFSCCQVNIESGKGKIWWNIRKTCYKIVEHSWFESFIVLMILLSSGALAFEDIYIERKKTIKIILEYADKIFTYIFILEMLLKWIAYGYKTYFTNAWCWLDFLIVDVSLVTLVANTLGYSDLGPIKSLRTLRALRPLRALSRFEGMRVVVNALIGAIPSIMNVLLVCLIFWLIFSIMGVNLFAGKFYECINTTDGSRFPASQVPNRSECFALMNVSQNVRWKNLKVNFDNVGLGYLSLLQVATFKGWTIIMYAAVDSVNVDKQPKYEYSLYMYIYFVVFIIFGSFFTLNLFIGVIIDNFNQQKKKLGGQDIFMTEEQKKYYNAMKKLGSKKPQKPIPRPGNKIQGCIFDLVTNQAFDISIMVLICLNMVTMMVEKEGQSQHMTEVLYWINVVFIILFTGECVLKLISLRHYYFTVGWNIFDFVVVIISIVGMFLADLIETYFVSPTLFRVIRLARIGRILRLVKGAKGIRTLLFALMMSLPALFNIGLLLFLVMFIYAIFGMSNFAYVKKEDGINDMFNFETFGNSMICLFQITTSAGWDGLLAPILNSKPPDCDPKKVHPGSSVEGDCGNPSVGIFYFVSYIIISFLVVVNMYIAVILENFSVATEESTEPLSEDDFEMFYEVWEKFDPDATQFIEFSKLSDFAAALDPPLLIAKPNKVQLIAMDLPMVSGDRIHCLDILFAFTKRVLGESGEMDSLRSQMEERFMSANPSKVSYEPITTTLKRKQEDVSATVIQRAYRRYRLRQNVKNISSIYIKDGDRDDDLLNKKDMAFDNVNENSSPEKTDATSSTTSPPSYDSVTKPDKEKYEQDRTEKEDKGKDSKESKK

Consider `CC[C@H](C)[C@H](NC(=O)[C@@H](NC(=O)[C@H](CCCCN)NC(=O)[C@H](CCCNC(=N)N)NC(=O)[C@@H]1CSSC[C@@H]2NC(=O)[C@H](C)NC(=O)[C@H](CCCNC(=N)N)NC(=O)[C@H](CCCCN)NC(=O)[C@H](CO)NC(=O)[C@H](CC(=O)O)NC(=O)[C@@H]3CSSC[C@H](NC(=O)[C@H](CCCNC(=N)N)NC(=O)[C@H](CC(C)C)NC(=O)CNC(=O)[C@H](CCC(=O)O)NC(=O)[C@H](CSSC[C@H](NC(=O)[C@@H](N)Cc4ccc(O)cc4)C(=O)N[C@@H](CCC(N)=O)C(=O)N[C@@H](CCCCN)C(=O)N[C@@H](Cc4c[nH]c5ccccc45)C(=O)N[C@@H](CCSC)C(=O)N[C@@H](Cc4c[nH]c5ccccc45)C(=O)N[C@@H]([C@@H](C)O)C(=O)N3)NC2=O)C(=O)N[C@@H](CCCCN)C(=O)N[C@@H](CC(C)C)C(=O)N[C@@H](Cc2c[nH]c3ccccc23)C(=O)N1)[C@@H](C)CC)C(N)=O` [SEQ ID NO: 2, JzTx-V(1-29), reference compound], for which, on hNav1.7 [1], the “block of hNav1.7 current” value was “blocked all Nav1.7 current” and the “inhibition of hNav1.7 current” value was “complete inhibition”. Also, at hNav1.8, the “inhibition of hNav1.8 current” value is reported as “only partial inhibition”. For the same compound, on hNav1.5, the “block of hNav1.5 current” value is recorded as “blocked most Nav1.5 current; also recorded: nearly complete inhibition”. Also, the “block of hNav1.4 current” value on hNav1.4 was “completely blocked Nav1.4 current; also recorded: complete inhibition”. Moreover, on hNav1.3, the “block of hNav1.3 current” value is “completely blocked Nav1.3 current; also recorded: complete inhibition”. In addition, the “block of TTX-sensitive Nav current” value in data set [2] is reported as “completely blocked TTX-sensitive Nav current; also recorded: blocked nearly all TTX-sensitive Nav current; also recorded: almost complete inhibition”. For the same compound, the “effect on TTX-resistant Nav current” value in [3] is listed as “nominal effect on peak TTX-resistant current but prolonged the level of TTX-resistant current at 40 msec; also recorded: only partial inhibition”.

In the case of `CC[C@H](C)[C@H](NC(=O)[C@H](CCCCN)NC(=O)[C@H](CCCNC(=N)N)NC(=O)[C@@H]1CSSC[C@@H]2NC(=O)[C@H](C)NC(=O)[C@H](CCCNC(=N)N)NC(=O)[C@H](CCCCN)NC(=O)[C@H](CO)NC(=O)[C@H](CC(=O)O)NC(=O)[C@@H]3CSSC[C@H](NC(=O)[C@H](CCC(=O)O)NC(=O)[C@H](CC(C)C)NC(=O)CNC(=O)[C@H](CCC(=O)O)NC(=O)[C@H](CSSC[C@H](NC(=O)[C@@H](N)Cc4ccc(O)cc4)C(=O)N[C@@H](CCC(N)=O)C(=O)N[C@@H](CCCCN)C(=O)N[C@@H](Cc4c[nH]c5ccccc45)C(=O)N[C@@H](CCSC)C(=O)N[C@@H](Cc4c[nH]c5ccccc45)C(=O)N[C@@H]([C@@H](C)O)C(=O)N3)NC2=O)C(=O)N[C@@H](CCCCN)C(=O)N[C@@H](CC(C)C)C(=O)N[C@@H](Cc2c[nH]c3ccccc23)C(=O)N1)C(=O)N[C@@H](Cc1c[nH]c2ccccc12)C(N)=O` [SEQ ID NO: 112, [Glu20;Trp29]JzTx-V(1-29)], the IC50 on hNav1.7 [4] is 1.5 nM. Further, the “block of TTX-sensitive Nav current” value in data set [2] is given as “only blocked around half of TTX-sensitive Nav current; also recorded: only partially blocked TTX-sensitive Nav current; also recorded: only partial inhibition”. For the same compound, in data set [2] (TTX-sensitive current, mouse DRG neurons), the “loss in potency relative to the human clone of Nav1.7” value is recorded as ~1000 fold. Further, in the data set on male CD-1 mice [5], the “time spent lifting and/or licking the affected paw, first phase (0-5 min)” value is “no effect and Neither the peptide nor the morphine positive control significantly reduced and 1 mg/kg dose of peptide may have slightly increased the pain response”; the “time spent lifting and/or licking the affected paw, second phase (5-40 min)” value is given as “no effect; also recorded: but not the peptide significantly reduced”. Besides, the “thermal latency / thermal hyperalgesia” value with male CD-1 mice [6] is on record as “no effect”. In addition, the “formalin response, first or acute phase (0-5 min)” value in the data set with male Sprague-Dawley rats [7] (peptide 5.0 mg/kg s.c. 1-h pre-treatment, vs vehicle (PBS)) was “no effect”. Also, in the data set with male Sprague-Dawley rats [7] (rat, in vivo), the “formalin response, second phase (5-40 min)” value was “did not decrease and may have actually increased; also recorded: may have actually increased the pain response”. For the same compound, the “% Peptide Remaining” value in [8] was 100%. Moreover, the “% Peptide Remaining” value in data set [9] is 100%. In addition, the “plasma concentration over the in vitro hNav1.7 IC50 by PX” value in data set [10] (CD-1 mice) stood at 26 fold. In [10] (mice), the “time with measurable plasma concentrations” value is 4 h and the tolerability entry was “tolerated”. Further, the “terminal exposure (plasma)” value in the data set on male CD-1 mice [11] (0.1 mg/kg s.c.) was 0.0248 ± 0.00668 µM. In addition, in the data set with male CD-1 mice [11] (0.3 mg/kg s.c.), the “terminal exposure (plasma)” value came out at 0.121 ± 0.0296 µM. The “terminal exposure (plasma)” value in the data set with male CD-1 mice [11] (1.0 mg/kg s.c.) was determined as 0.419 ± 0.226 µM. The “terminal exposure (plasma)” value in the data set on male CD-1 mice [11] (5.0 mg/kg s.c.) is 4.73 ± 0.584 µM. Besides, in the data set on male CD-1 mice [11] (setting [17]), the total fine movement entry is “no effect” and the total time rearing entry is given as “no effect”. Besides, the “terminal exposure (plasma)” value in the data set with male Sprague-Dawley rats [12] was determined as 0.994 ± 0.184 µM. Also, the half-life in the data set “in vivo” is ~2.08 h. Moreover, in the data set “in vitro [13]”, the fraction remaining at 2 h was found to be 95%, the fraction remaining at 4 h was determined as 84%, the fraction remaining at 6 h was found to be 75% and the share remaining at 8 h came to 71%. In addition, the amount remaining at 24 h in “in vitro [13]” was determined as 48%. In “in vitro [14]”, this compound displayed an amount remaining at 2 h of 93%, a share remaining at 4 h of 91%, a fraction remaining at 6 h of 90% and an amount remaining at 8 h of 91%. This compound displayed a share remaining at 24 h in the data set “in vitro [14]” of 89%.

Turning to Huwentoxin-IV [SEQ ID NO: 528], in data set [15], the “less potent against central neuronal sodium channels” value is recorded as 12 fold.

Take “YCQKWMWTCDSERKCCEGMVCRLWCKKKLW [SEQ ID NO: 531, ProTx-II]”: the “efficacy in mechanical hyperalgesia study” value in data set [16] is “not efficacious”.

μ-Conotoxin KIIIA [SEQ ID NO: 530]: in the data set with mice, the motor impairment result was “some motor impairment but not paralytic activity”.

Usually IC50 stands for the concentration that inhibits the measured activity by half. As usually defined, the half-life is the time in which the quantity being followed falls by half. A low value points to rapid decline. By fraction remaining is commonly meant the share of the starting amount still present when the sample was taken.
